Assays:
[1] = 12-week placebo-controlled trials comparing various doses; cited from earlier work
[2] = Phase 1 study, removal of solriamfetol by 4-hour hemodialysis in ESRD; format: in vivo, human
Description: Groups 1-4 received one dose of solriamfetol HCl (89.3 mg; equivalent to 75-mg solriamfetol) on day 1; Group 5 received one dose equivalent to 75-mg dose on day 1 followed by 4-hour hemodialysis (designated Group 5.2), and one dose equivalent to 75-mg solriamfetol on day 8 without hemodialysis (designated Group 5.1). All doses were administered on an empty stomach following an overnight fast except for participants in Group 5, who received a standardized snack on day 7 and breakfast early on day 8 before starting an 8-hour fast. Participants remained fasting for 4 hours after administration, with water allowed except for 1 hour before and after dosing.
Urine samples were collected predose and for the time intervals of 0-4, 4-8, 8-12, 12-24, and 24-48 hours in Groups 1-3, with additional collection for the 48-72 hour time interval in Groups 4 and 5. During the hemodialysis period on day 1 for Group 5, dialysate samples and pre- and post-dialyzer paired blood samples were collected at pre-dialysis (2 hours), and at 3, 4, 5, and 6 hours following dosing. […]
Bioanalytical analyses were performed by a central laboratory (KCAS, LLC, Shawnee, Kansas) using validated proprietary methods that included extraction/derivatization and liquid chromatography-tandem mass spectrometry (LC-MS/MS). […] Assay performance was monitored by spiking blank interference free human plasma with positive controls and internal standards to generate standard curve and quality control samples. […] Quantification was based on setting a calibration graph using the internal standard method. […]
The following plasma PK parameters were evaluated using non-compartmental analysis in Phoenix® WinNonlin® Version 6.3: Cmax; time to reach Cmax following drug administration (tmax); t½; area under the plasma concentration-time curve from time zero to time of last quantifiable concentration (AUCt); AUC from time zero to infinity (AUC∞); apparent total clearance of the drug from plasma after oral administration (CL/F); and apparent volume of distribution (Vd/F). […]

NC(=O)OC[C@H](N)Cc1ccccc1 [solriamfetol, [R]-2-amino-3-phenylpropylcarbamate]
adverse effects (headache, nausea, decreased appetite, anxiety and others), dependence on dose [1]: dose-dependent
hemodialysis clearance, lower than renal clearance in normal renal function [2]: approximately 30%
clearance ([2]; both sexes, human, dialysate, oral, 75 mg, day 1): 207 mL/min
cumulative fraction of the 75-mg dose removed over the 4-hour hemodialysis period, mean ([2]; day 1): 20.6%

— patent US20230293475A1, “METHODS OF PROVIDING SO[…] TO SUBJECTS WITH IMPAIRED RENAL FUNCTION” (Axsome Malta Ltd., priority 2020, published 2023)
